The subject of one experiment is ZR-75-1 cells. Description: Reversal of DFMO-induced growth inhibition by exogenous spermidine. The format is cell-based, human. Particulars: 1 mM DFMO. Here is the method:
For growth studies, ZR-75-1 cells were cultured in MEZR medium or in phenol red-free RPMI 1640 supplemented with 2 mM L-glutamine, 1 mM sodium pyruvate, 15 mM Hepes, antibiotics, 1 nM 17β-estradiol, 0.5 μg of bovine insulin per ml and 5% (v/v) charcoal-treated fetal bovine serum (SD medium), as indicated in the text. When polyamines or polyamine analogs were added to serum-containing media, 1 mM aminoguanidine was added to inhibit bovine serum amine oxidase (BSAO) activity (Morgan, D. M. L. 1989, in The Physiology of Polyamines (Bachrach, U., and Heimer, Y. M. eds) Vol. I, pp. 203-229, CRC Press, Boca Raton). The effect of the transport inhibitors on cell growth was measured by incubating ZR-75-1 cells for 11 days in medium supplemented with antagonist, polyamines and/or 1 mM DFMO as indicated, followed by colorimetric determination of DNA content with 3,4-diaminobenzoic acid (Simard, J., Dauvois, S., Haagensen, D. E., Lėvesque C., Mėrand, Y. and Labriė, F. 1990. Endocrinology 126: 3223-3231).
This possibility was assessed by comparing the ability of DESC to prevent the reversal of DFMO-induced growth inhibition by increasing concentrations of exogenous spermidine.

Experiment [1] addresses polyamine transporter. The note with it: ZR-75-1 cells; data annotated a (Lessard et al. 1995); read-out: Km or Ki, putrescine transport; cited from earlier work.
The target in experiment [2] is polyamine transporter. The note with it: ZR-75-1 cells; data annotated a (Lessard et al. 1995); read-out: Km or Ki, spermidine transport; cited from earlier work.
Experiment [3] concerns the target polyamine transporter. The note with it: ZR-75-1 cells; data annotated a (Lessard et al. 1995); read-out: Km or Ki, spermine transport; cited from earlier work.

Where two headings read alike, the source gives them in different places.

In the case of `NCCCCNCCCN` [Spermidine, N-3[aminopropyl]-1,4-diaminobutane], the “Spermidine concentration completely reversing DFMO-induced growth inhibition” value with ZR-75-1 cells (11 days) is 0.3 µM. In addition, the activity at 0.1 µM in the experiment with ZR-75-1 cells (Homo sapiens, ZR-75-1, 0.1 μM spermidine, read-out: Growth of DFMO-treated cells restored, % of control value) came out at 78%. Also, the Ki on polyamine transporter [1] was 230 ± 50 nM; on polyamine transporter [2], 490 ± 150 nM; at polyamine transporter [3] it was 370 ± 90 nM.
